Results reported in patent US12128044B2, “Fused tricyclic compounds and uses thereof in medicine” (SUNSHINE LAKE PHARMA CO., LTD., priority 2018, dated 2024).

What was measured:
[1] = test system: HBV DNA replication; assay: Inhibition of HBV virus replication (HBV DNA in supernatant, qPCR) in HepG2.2.15 cells; format: cell-based; conditions: Hepatitis B virus, 10 days treatment, supernatant day 11, qPCR
Excerpt: (§1) The chromosome of HepG2.2.15 cells integrates a complete HBV genome and stably expresses viral RNA and protein. HepG2.2.15 cells can secrete mature hepatitis B virus particles and HBsAg into culture medium. Virus particles DNA and HBsAg secreted by HepG 2.2.15 cells can be quantified by q-PCR and ELISA, and the effects of compounds on viral replication and HBsAg secretion can be detected.
(§2) HepG 2.2.15 cells were inoculated with 8,000 per cell to 96-well cell culture plates in duplicate, and were cultured for 3 days until the cells grew to full-hole. Cells were treated with 4-fold serial dilutions of compounds for 10 days, and were given alternately every other day. The final concentration of DMSO in all pores was 0.5% and DMSO was used as a drug-free control. The supernatant was collected for quantitative detection of HBV DNA on day 11.
Viral genomic DNA was detected by qPCR method, and HBV primers were as follows: • HBV-For-202, […] (SEQ ID NO:1); • HBV-Rev-315, […](SEQ ID NO:2).
The SYBR Premix Ex Taq II-Takara DRR081S kit was used, and 1 μL of cell culture supernatant was used as a template. A standard curve was made using a plasmid containing the HBV genome, and the viral copy number was calculated using the standard curve. Concentration-virus copy number was processed using Graphpad Prism 5 software, and IC50 of Compounds Inhibiting Virus Replication was calculated by Four-parameter Nonlinear Regression Model.

[2] = test system: HBsAg secretion; assay: Inhibition of HBsAg secretion (ELISA) in HepG2.2.15 cells; format: cell-based; conditions: Hepatitis B virus, HepG2.2.15, read-out: Hbs Ag IC50
Excerpt: as §1
as §2, with “HBsAg” for “HBV DNA”
The level of HBsAg secreted by the compound after treatment is detected by ELISA method, and the method uses a hepatitis B surface antigen diagnostic kit (Shanghai Kehua Biotech Co., Ltd. S10910113). 25 μL of the supernatant to be assayed (PBS was diluted to 75 μL) was added to per well of the ELISA plate, positive control and negative control kit were set. ELISA plate was blocked with a cover paper, and incubated at 37° C. for 60 minutes. The ELISAplate was taken out, the seal was teared off, and 50 μL of enzyme conjugate was added to each well. The ELISA plate was oscillated on the shaker for 10 seconds, blocked with a cover paper and incubated at 37° C. for 30 minutes. The ELISA plate was taken out, the seal was teared off, and the ELISA plate was washed 5 times: each time the liquid in the hole was discarded, the washing liquid was filled into the holes, left to stand for 60 seconds, dried, and the liquid residue was patted on the absorbent paper. Immediately after the end of washing, a freshly prepared mixture of Developer A and Developer B was added to all wells: 100 μL per well. The ELISA plate was oscillated on the shaker for 10 seconds, blocked with a cover paper and incubated at 37° C. for 30 minutes. 50 μL of stop solution was added to all wells. Absorbance was read on the Envision plate reader at 450 nm. Concentration-HBsAg OD450 was processed using Graphpad Prism 5 software, and IC50 of Compounds Inhibiting Virus Replication was calculated by Four-parameter Nonlinear Regression Model.

[3] = Pharmacokinetic experiments in beagle dogs; format: in vivo
Method: Pharmacokinetic experiments of the compounds of the invention in beagle dogs (Body weight 10-12 kg, male, age 10-12 months, 3 per oral group, 3 per intravenous injection group) Test method:
Beagle was administered orally with 2.5 mg/kg or 5 mg/kg of the compound tested or intravenously injected with 1 mg/kg or 2 mg/kg of the compound tested.
After administration, venous blood was collected at time points (0.083, 0.25, 0.5, 1, 2, 4, 6, 8 and 24 hours) and collected in an anticoagulation tube with EDTA-K2. After liquid-liquid extraction, plasma samples were quantitatively analyzed by multiple reaction ion monitoring (MRM) on a triple quadrupole tandem mass spectrometer. Pharmacokinetic parameters were calculated using a noncompartmental method by WinNonLin 6.3 software.

SMILES	IC50 [1]	IC50 [2]	also measured
COc1cc2c(cc1-c1cnn(C3CC(C)(C)OC(C)(C)C3)c1)CN(C(C)C)n1cc(C(=O)O)c(=O)cc1-2 [Example 8, 6-isopropyl-10-methoxy-2-oxo-9-(1-(2,2,6,6-tetramethyltetrahydro-2H-pyran-4-yl)-1H-pyrazole-4-yl)-6,7-dihydro-2H-pyrido[2,1-a]phthalazine-3-carboxylic acid]	6.26 nM	6.03 nM	–
COc1cc2c(cc1-c1cnn(C3CCC3)c1)CN(C(C)C)n1cc(C(=O)O)c(=O)cc1-2 [Example 17, 9-(1-cyclobutyl-1H-pyrazole-4-yl)-6-isopropyl-10-methoxy-2-oxo-6,7-dihydro-2H-pyrido[2,1-a]phthalazine-3-carboxylic acid]	2.82 nM	4.07 nM	–
COc1cc2c(cc1-c1ccco1)CN(C(C)C)n1cc(C(=O)O)c(=O)cc1-2 [Example 1, 9-(furan-2-yl)-6-isopropyl-10-methoxy-2-oxo-6,7-dihydro-2H-pyrido[2,1-a]phthalazine-3-carb oxylic acid]	2.68 nM	4.27 nM	–
COc1cc2c(cc1-c1cnn(C(C)C)c1)CN(C1CC1)n1cc(C(=O)O)c(=O)cc1-2 [Example 14, 6-cyclopropyl-9-(1-isopropyl-1H-pyrazol-4-yl)-10-methoxy-2-oxo-6,7-dihydro-2H-pyrido[2,1-a]phthalazine-3-carboxylic acid]	< 0.24 nM	< 0.24 nM	–
COc1cc2c(cc1-c1cccs1)CN(C(C)C)n1cc(C(=O)O)c(=O)cc1-2 [Example 2, 6-isopropyl-10-methoxy-2-oxo-9-(thiophen-2-yl)-6,7-dihydro-21H-pyrido[2,1-a]phthalazine-3-carboxylic acid]	2.06 nM	1.72 nM	–
COc1cc2c(cc1-c1cnn(C3CCCC3)c1)CN(C(C)C)n1cc(C(=O)O)c(=O)cc1-2 [Example 18, 9-(1-cyclopentyl-1H-pyrazole-4-yl)-6-isopropyl-10-methoxy-2-oxo-6,7-dihydro-2H-pyrido [2,1-a]phthalazine-3-carboxylic acid]	2.28 nM	3.73 nM	–
COc1cc2c(cc1-c1nccs1)CN(C(C)C)n1cc(C(=O)O)c(=O)cc1-2 [Example 3, 6-isopropyl-10-methoxy-2-oxo-9-(thiazol-2-yl)-6,7-dihydro-2H-pyrido[2,1-a]phthalazine-3-carboxylic acid]	1.71 nM	3.26 nM	–
COc1cc2c(cc1-c1cnn(C(C)C)c1)CN(C1CCC1)n1cc(C(=O)O)c(=O)cc1-2 [Example 15, 6-cyclobutyl-9-(1-isopropyl-1H-pyrazol-4-yl)-10-methoxy-2-oxo-6,7-dihydro-2H-pyrido[2,1-a]phthalazine-3-carboxylic acid]	2.1 nM	1.83 nM	–
COc1cc2c(cc1-c1cnn(C3CCC(F)(F)CC3)c1)CN(C(C)C)n1cc(C(=O)O)c(=O)cc1-2 [Example 7, 9-(1-(4,4-Difluorocyclohexyl)-1H-pyrazol-4-yl)-6-isopropyl-10-methoxy-2-oxo-6,7-dihydro-2H-pyrido[2,1-a]phthalazine-3-carboxylic acid]	1.76 nM	6.73 nM	–
COc1cc2c(cc1-c1cnn(C(F)F)c1)CN(C(C)C)n1cc(C(=O)O)c(=O)cc1-2 [Example 5, 9-(1-(difluoromethyl)-1H-pyrazole-4-yl)-6-isopropyl-10-methoxy-2-oxo-6,7-dihydro-2H-pyrido [2,1-a]phthalazine-3-carboxylic acid]	7.3 nM	14.3 nM	F ([3]; PO 5 mg/kg vs IV 1 mg/kg): 76.7%; AUC(0-inf) ([3]; male, dog, plasma, IV, 1 mg/kg): 17400 ng·h/mL; AUC(0-t) ([3]; male, dog, plasma, IV, 1 mg/kg): 16900 ng·h/mL; Cmax ([3]; male, dog, plasma, IV, 1 mg/kg): 2170 ng/mL; clearance ([3]; male, dog, plasma, IV, 1 mg/kg): 0.955 mL/min/kg; AUC(0-inf) ([3]; male, dog, plasma, PO, 5 mg/kg): 66700 ng·h/mL; AUC(0-t) ([3]; male, dog, plasma, PO, 5 mg/kg): 63300 ng·h/mL; Cmax ([3]; male, dog, plasma, PO, 5 mg/kg): 8710 ng/mL
COc1cc2c(cc1-c1cnn(C(C)C)c1)CN(C(C)C)n1cc(C(=O)O)c(=O)cc1-2 [Example 4, 6-isopropyl-9-(1-isopropyl-1H-pyrazol-4-yl)-10-methoxy-2-oxo-6,7-dihydro-2H-pyrido[2,1-a]phthalazine-3-carboxylic acid]	3.81 nM	9.6 nM	–
COc1cc2c(cc1-c1cnn(C(C)C)c1)CN(C(C)(C)C)n1cc(C(=O)O)c(=O)cc1-2 [Example 13, 6-(tert-butyl)-9-(1-isopropyl-1H-pyrazol-4-yl)-10-methoxy-2-oxo-6,7-dihydro-2H-pyrido[2,1-a]phthalazine-3-carboxylic acid]	0.7 nM	0.97 nM	–
COc1cc2c(cc1-c1cnn(C3CC3)c1)CN(C(C)C)n1cc(C(=O)O)c(=O)cc1-2 [Example 16, 9-(1-cyclopropyl-1H-pyrazole-4-yl)-6-isopropyl-10-methoxy-2-oxo-6,7-dihydro-2H-pyrido[2,1-a]phthalazine-3-carboxylic acid]	2.74 nM	6.11 nM	–
COc1cc2c(cc1-c1cnn(C3CCOCC3)c1)CN(C(C)C)n1cc(C(=O)O)c(=O)cc1-2 [Example 19, 6-isopropyl-10-methoxy-2-oxo-9-(1-(tetrahydro-2H-pyran-4-yl)-1H-pyrazole-4-yl)-6,7-dihydro-2H-pyrido[2,1-a]phthalazine-3-carboxylic acid]	3.98 nM	7.82 nM	–
